The text below walks through data of patent publication US20240092784A1, “CONDENSED HETEROCYCLIC COMPOUND” (NISSAN CHEMICAL CORPORATION, priority 2020, published 2024).

Molecules are shown by their SMILES. Where a name gives a salt, the structure may show the parent alone.

human SPR, sequence (P35270 whole entry): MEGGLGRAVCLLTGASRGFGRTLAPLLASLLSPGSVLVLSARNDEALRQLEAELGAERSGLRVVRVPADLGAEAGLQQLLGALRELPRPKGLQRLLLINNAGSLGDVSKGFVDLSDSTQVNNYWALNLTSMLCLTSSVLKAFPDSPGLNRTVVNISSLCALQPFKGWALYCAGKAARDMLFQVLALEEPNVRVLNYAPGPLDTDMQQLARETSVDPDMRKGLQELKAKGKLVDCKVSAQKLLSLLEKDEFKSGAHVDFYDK

The first experiment concerns the target human SPR (Homo sapiens (Human), UniProt P35270). The experiment can be described thus: Evaluation Example 2: Measurement of human SPR inhibitory activity (seven concentrations, sepiapterin absorbance at 420 nm). It is filed as biochemical. Conditions: Evaluation Example 2, seven concentrations 0.14 nM to 100 nM, 240 minutes at room temperature, read-out: IC50. The method in brief:
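Reactions ran 240 min at room temperature in 100 mM Tris-HCl pH 7.5 with 0.01% BSA. They contained tag-cleaved, E. coli-expressed full-length human SPR (diluted to 150 ng/mL), seven compound concentrations from 0.14 to 100 nM, and sepiapterin/NADPH added as a 120 μM/160 μM solution. Inhibition was calculated from sepiapterin absorbance at 420 nm.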
As to `C[C@H]1COCCN1C(=O)/C=C/c1cnn2c(O)c(C(=O)NC3CC3)c(=O)n(CC3(C)CC3)c12` [Synthesis Example 369, (S,E)-N-Cyclopropyl-7-hydroxy-4-((1-methylcyclopropyl)methyl)-3-(3-(3-methylmorpholino)-3-oxoprop-1-en-1-yl)-5-oxo-4,5-dihydropyrazolo[1,5-a]pyrimidine-6-carboxamide], the IC50 was found to be 0.58 nM.

Consider `CC(C)Cn1c(=O)c(C(=O)NC2CC2)c(O)n2ncc(/C=C/C(=O)N3CCC[C@H]3c3cccnc3)c12` [compound 603, (S,E)-N-Cyclopropyl-7-hydroxy-4-isobutyl-5-oxo-3-(3-oxo-3-(2-(pyridin-3-yl)pyrrolidin-1-yl)prop-1-en-1-yl)-4,5-dihydropyrazolo[1,5-a]pyrimidine-6-carboxamide], for which the IC50 amounted to 1.1 nM.

For the compound `CC(Cn1c(=O)c(C(=O)NC2CC2)c(O)n2ncc(/C=C/C(=O)N3CCOCC3)c12)C(F)(F)F` (single isomer, unassigned) [Synthesis Example 389, (E)-N-Cyclopropyl-7-hydroxy-3-(3-morpholino-3-oxoprop-1-en-1-yl)-5-oxo-4-(3,3,3-trifluoro-2-methylpropyl)-4,5-dihydropyrazolo[1,5-a]pyrimidine-6-carboxamide], the IC50 turned out to be 0.95 nM.

As for `CC(C)Cn1c(=O)c(C(=O)NC2CC2)c(O)n2ncc(/C=C/C(=O)N3CCC[C@H](CO)C3)c12` [compound 528, (S,E)-N-Cyclopropyl-7-hydroxy-3-(3-(3-(hydroxymethyl)piperidin-1-yl)-3-oxoprop-1-en-1-yl)-4-isobutyl-5-oxo-4,5-dihydropyrazolo[1,5-a]pyrimidine-6-carboxamide], the IC50 worked out at 0.85 nM.

Regarding `CC(C)Cn1c(=O)c(C(=O)NC2CC2)c(O)n2ncc(/C=C/C(=O)N3CCC(=O)C3)c12` [compound 516, (E)-N-Cyclopropyl-7-hydroxy-4-isobutyl-5-oxo-3-(3-oxo-3-(3-oxopyrrolidin-1-yl)prop-1-en-1-yl)-4,5-dihydropyrazolo[1,5-a]pyrimidine-6-carboxamide], the IC50 came out at 0.61 nM.

With `COC(C)Cn1c(=O)c(C(=O)NC2CC2)c(O)n2ncc(/C=C/C(=O)N3CCOCC3)c12` (single isomer, unassigned) [Synthesis Example 385, (E)-N-Cyclopropyl-7-hydroxy-4-(2-methoxypropyl)-3-(3-morpholino-3-oxoprop-1-en-1-yl)-5-oxo-4,5-dihydropyrazolo[1,5-a]pyrimidine-6-carboxamide], the IC50 amounted to 0.83 nM.

`CC(C)(C)Cn1c(=O)c(C(=O)NCC(F)(F)F)c(O)n2nc(Nc3cnccn3)cc12` [Synthesis Example 347, 7-Hydroxy-4-neopentyl-5-oxo-2-(pyrazin-2-ylamino)-N-(2,2,2-trifluoroethyl)-4,5-dihydropyrazolo[1,5-a]pyrimidine-6-carboxamide]: the IC50 worked out at 1.87 nM.

Turning to `Cc1nccnc1Nc1cc2n(CC(C)(C)C)c(=O)c(C(=O)NC3CC3)c(O)n2n1` [Synthesis Example 328, N-Cyclopropyl-7-hydroxy-2-((3-methylpyrazin-2-yl)amino)-4-neopentyl-5-oxo-4,5-dihydropyrazolo[1,5-a]pyrimidine-6-carboxamide], the IC50 was 1.56 nM.

As for `CC(C)Cn1c(=O)c(C(=O)NC2CC2)c(O)n2ncc(/C=C/C(=O)N3[C@@H](C)COC[C@@H]3C)c12` [compound 457, N-Cyclopropyl-3-((E)-3-((3S,5S)-3,5-dimethylmorpholino)-3-oxoprop-1-en-1-yl)-7-hydroxy-4-isobutyl-5-oxo-4,5-dihydropyrazolo[1,5-a]pyrimidine-6-carboxamide], the IC50 turned out to be 0.81 nM.

For the compound `CC(C)(C)Cn1c(=O)c(C(=O)NC2CC2)c(O)n2nc(-c3cnccc3F)cc12` [Synthesis Example 295, N-Cyclopropyl-2-(4-fluoropyridin-3-yl)-7-hydroxy-4-neopentyl-5-oxo-4,5-dihydropyrazolo[1,5-a]pyrimidine-6-carboxamide], the IC50 is 2.48 nM.

Regarding `COCCNC(=O)/C=C/c1cnn2c(O)c(C(=O)NC3CC3)c(=O)n(CC(C)C)c12` [compound 517, (E)-N-Cyclopropyl-7-hydroxy-4-isobutyl-3-(3-((2-methoxyethyl)amino)-3-oxoprop-1-en-1-yl)-5-oxo-4,5-dihydropyrazolo[1,5-a]pyrimidine-6-carboxamide], the IC50 was determined as 0.57 nM.

`CC(C)Cn1c(=O)c(C(=O)NC2CC2)c(O)n2nc(N)c(/C=C/C3CCCCC3)c12` [Synthesis Example 441, (E)-2-Amino-3-(2-cyclohexylvinyl)-N-cyclopropyl-7-hydroxy-4-isobutyl-5-oxo-4,5-dihydropyrazolo[1,5-a]pyrimidine-6-carboxamide]: the IC50 is 4.74 nM.

As to `CC(C)Cn1c(=O)c(C(=O)NC2CC2)c(O)n2ncc(/C=C/C3CCNCC3)c12` [Synthesis Example 241, (E)-N-Cyclopropyl-7-hydroxy-4-isobutyl-5-oxo-3-(2-(piperidin-4-yl)vinyl)-4,5-dihydropyrazolo[1,5-a]pyrimidine-6-carboxamide hydrochloride], the IC50 turned out to be 1.98 nM.

Consider `CC[C@H]1COCCN1C(=O)/C=C/c1c(C)nn2c(O)c(C(=O)NC3CC3)c(=O)n(CC(C)C)c12` [Synthesis Example 659, (S,E)-N-Cyclopropyl-3-(3-(3-ethylmorpholino)-3-oxoprop-1-en-1-yl)-7-hydroxy-4-isobutyl-2-methyl-5-oxo-4,5-dihydropyrazolo[1,5-a]pyrimidine-6-carboxamide], for which the IC50 was 0.83 nM.

For `CC[C@@H]1COCCN1C(=O)/C=C/c1cnn2c(O)c(C(=O)NC3CC3)c(=O)n(CC(C)C)c12` [compound 540, (R,E)-N-Cyclopropyl-3-(3-(3-ethylmorpholino)-3-oxoprop-1-en-1-yl)-7-hydroxy-4-isobutyl-5-oxo-4,5-dihydropyrazolo[1,5-a]pyrimidine-6-carboxamide], the IC50 turned out to be 0.66 nM.

On to `CC(C)Cn1c(=O)c(C(=O)NC2CC2)c(O)n2ncc(/C=C/c3cnccn3)c12` [Synthesis Example 236, (E)-N-Cyclopropyl-7-hydroxy-4-isobutyl-5-oxo-3-(2-(pyrazin-2-yl)vinyl)-4,5-dihydropyrazolo[1,5-a]pyrimidine-6-carboxamide], for which the IC50 is 0.97 nM.

Consider `Cc1nn2c(O)c(C(=O)NC3CC3)c(=O)n(CC(C)(C)C)c2c1/C=C/C(=O)N1CCC(F)(F)C1` [Synthesis Example 627, (E)-N-Cyclopropyl-3-(3-(3,3-difluoropyrrolidin-1-yl)-3-oxoprop-1-en-1-yl)-7-hydroxy-2-methyl-4-neopentyl-5-oxo-4,5-dihydropyrazolo[1,5-a]pyrimidine-6-carboxamide], for which the IC50 stood at 0.94 nM.

Take `CC(C)(C)Cn1c(=O)c(C(=O)NC2CC2)c(O)n2nc(Nc3cnc(C(=O)N4CCOCC4)cn3)cc12` [Synthesis Example 335, N-Cyclopropyl-7-hydroxy-2-((5-(morpholine-4-carbonyl)pyrazin-2-yl)amino)-4-neopentyl-5-oxo-4,5-dihydropyrazolo[1,5-a]pyrimidine-6-carboxamide]: the IC50 worked out at 0.73 nM.

With `CC(C)Cn1c(=O)c(C(=O)NC2CC2)c(O)n2ncc(/C=C/C(=O)N3CC[C@@H](C(N)=O)C3)c12` [compound 513, (R,E)-3-(3-(3-Carbamoylpyrrolidin-1-yl)-3-oxoprop-1-en-1-yl)-N-cyclopropyl-7-hydroxy-4-isobutyl-5-oxo-4,5-dihydropyrazolo[1,5-a]pyrimidine-6-carboxamide], the IC50 came to 0.75 nM.

Still in this experiment, the particulars now being: sepiapterin absorbance, Table 41, read-out: concentration at 50% inhibition of human SPR (IC50).
As to `CC(C)Cn1c(=O)c(C(=O)NC2CC2)c(O)n2ncc(/C=C/C(=O)N3C[C@@H](C)OC[C@H]3C)c12` [Synthesis Example 716, N-Cyclopropyl-3-((E)-3-((2R,5R)-2,5-dimethylmorpholino)-3-oxoprop-1-en-1-yl)-7-hydroxy-4-isobutyl-5-oxo-4,5-dihydropyrazolo[1,5-a]pyrimidine-6-carboxamide], the IC50 was found to be 0.88 nM.

As for `CC(C)Cn1c(=O)c(C(=O)NC2CC2)c(O)n2ncc(/C=C/C(=O)N3CCN(C4CC(F)(F)C4)C[C@H]3C)c12` [Synthesis Example 715, (R,E)-N-Cyclopropyl-3-(3-(4-(3,3-difluorocyclobutyl)-2-methylpiperazin-1-yl)-3-oxoprop-1-en-1-yl)-7-hydroxy-4-isobutyl-5-oxo-4,5-dihydropyrazolo[1,5-a]pyrimidine-6-carboxamide], the IC50 stood at 1.28 nM.

`CC(C)Cn1c(=O)c(C(=O)NC2CC2)c(O)n2ncc(/C=C/C(=O)N3CCc4cc(Br)ccc43)c12` [Synthesis Example 735, (E)-3-(3-(5-Bromoindolin-1-yl)-3-oxoprop-1-en-1-yl)-N-cyclopropyl-7-hydroxy-4-isobutyl-5-oxo-4,5-dihydropyrazolo[1,5-a]pyrimidine-6-carboxamide]: the IC50 was 7.3 nM.

As for `CC[C@H]1COCCN1C(=O)/C=C/c1c(C)nn2c(O)c(C(=O)NC3CC3)c(=O)n(CC(C)(C)C)c12` [Synthesis Example 691, (S,E)-N-Cyclopropyl-3-(3-(3-ethylmorpholino)-3-oxoprop-1-en-1-yl)-7-hydroxy-2-methyl-4-neopentyl-5-oxo-4,5-dihydropyrazolo[1,5-a]pyrimidine-6-carboxamide], the IC50 is 0.82 nM.

Regarding `Cc1nn2c(O)c(C(=O)NC3CC3)c(=O)n(CC(C)C)c2c1/C=C/C(=O)N1CCOc2ccccc21` [Synthesis Example 696, (E)-N-Cyclopropyl-3-(3-(2,3-dihydro-4H-benz[b][1,4]oxazin-4-yl)-3-oxoprop-1-en-1-yl)-7-hydroxy-4-isobutyl-2-methyl-5-oxo-4,5-dihydropyrazolo[1,5-a]pyrimidine-6-carboxamide], the IC50 turned out to be 1.71 nM.
